Experimental data: patent publication US20140221361A1, “C-19 MODIFIED TRITERPENOIDS WITH HIV MATURATION INHIBITORY ACTIVITY” (priority 2013, published 2014)

System: recombinant NL4-3 virus (Renilla luciferase in nef, Gag P373S)
Assay: HIV cell culture assay (luciferase reporter, MT-2 cells)
Format: cell-based, HIV-1
Settings: MT-2 cells infected for 4-5 days with NLRluc recombinants; luciferase activity; serial dilutions of inhibitor
In short: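 MT-2 cells infected with recombinant NL4-3 carrying Renilla luciferase in place of part of nef and Gag P373S, virus made by 293T transfection. Infection ran 4-5 days with serial inhibitor dilutions. Antiviral activity read as luciferase activity (Dual Luciferase reagents mixed with lysis buffer).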

SMILES | EC50
CC([C@@H]1CC[C@]2(NCCN3CCS(=O)(=O)CC3)CC[C@]3(C)[C@H](CC[C@@H]4[C@@]5(C)CC=C(c6ccc(C(=O)O)cc6)C(C)(C)[C@@H]5CC[C@]43C)[C@@H]12)N(C)C (single isomer, unassigned) [Example B39] | 4.33 nM
CC(CO)[C@@H]1CC[C@]2(NCCN3CCS(=O)(=O)CC3)CC[C@]3(C)[C@H](CC[C@@H]4[C@@]5(C)CC=C(c6ccc(C(=O)O)c(F)c6)C(C)(C)[C@@H]5CC[C@]43C)[C@@H]12 (single isomer, unassigned) [Example A4] | 2.34 nM
CC(C(=O)O)[C@@H]1CC[C@]2(NCCN3CCS(=O)(=O)CC3)CC[C@]3(C)[C@H](CC[C@@H]4[C@@]5(C)CC=C(c6ccc(C(=O)O)c(F)c6)C(C)(C)[C@@H]5CC[C@]43C)[C@@H]12 (stereo partly drawn) [Example A7, 4-((1R,3aS,5aR,5bR,7aR,11aS,11bR,13aR,13bR)-1-(1-carboxyethyl)-3a-((2-(1,1-dioxidothiomorpholino)ethyl)amino)-5a,5b,8,8,11a-pentamethyl-2,3,3a,4,5,5a,5b,6,7,7a,8,11,11a,11b,12,13,13a,13b-octadecahydro-1H-cyclopenta[a]chrysen-9-yl)-2-fluorobenzoic acid] | 110 nM
CC(O)[C@@H]1CC[C@]2(NCCN3CCS(=O)(=O)CC3)CC[C@]3(C)[C@H](CC[C@@H]4[C@@]5(C)CC=C(c6ccc(C(=O)O)cc6)C(C)(C)[C@@H]5CC[C@]43C)[C@@H]12 (single isomer, unassigned) [Example B12] | 3.95 nM

Same assay, conditions: Renilla, NL43, MT-2 cells infected for 4-5 days with NLRluc recombinants; luciferase activity; serial dilutions of inhibitor

SMILES | EC50
CC(N)[C@@H]1CC[C@]2(NCCN3CCS(=O)(=O)CC3)CC[C@]3(C)[C@H](CC[C@@H]4[C@@]5(C)CC=C(c6ccc(C(=O)O)cc6)C(C)(C)[C@@H]5CC[C@]43C)[C@@H]12 (single isomer, unassigned) [Example B19] | 30 nM
C=C(CN(C)CCN(C)C)[C@@H]1CC[C@]2(C(=O)NCCN(C)C)CC[C@]3(C)[C@H](CC[C@@H]4[C@@]5(C)CC=C(c6ccc(C(=O)O)cc6)C(C)(C)[C@@H]5CC[C@]43C)[C@@H]12 [Example 8, 4-((1R,3aS,5aR,5bR,7aR,11aS,11bR,13aR,13bS)-1-(3-((2-(dimethylamino)ethyl)(methyl)amino)prop-1-en-2-yl)-3a-(2-(dimethylamino)ethylcarbamoyl)-5a,5b,8,8,11a-pentamethyl-2,3,3a,4,5,5a,5b,6,7,7a,8,11,11a,11b,12,13,13a,13b-octadecahydro-1H-cyclopenta[a]chrysen-9-yl)benzoic acid] | 1.49 nM
CC1(C)C(c2ccc(C(=O)O)cc2)=CC[C@]2(C)[C@H]3CC[C@@H]4[C@H]5[C@H](NC(=O)N6CCCC6)CC[C@]5(NCCN5CCS(=O)(=O)CC5)CC[C@@]4(C)[C@]3(C)CC[C@@H]12 [Example B30, 4-((1R,3aR,5aR,5bR,7aR,11aS,11bR,13aR,13bS)-3a-((2-(1,1-dioxidothiomorpholino)ethyl)amino)-5a,5b,8,8,11a-pentamethyl-1-(pyrrolidine-1-carboxamido)-2,3,3a,4,5,5a,5b,6,7,7a,8,11,11a,11b,12,13,13a,13b-octadecahydro-1H-cyclopenta[a]chrysen-9-yl)benzoic acid] | 2.96 nM
CC(C)(O)[C@@H]1CC[C@]2(NCCN3CC4CC3CO4)CC[C@]3(C)[C@H](CC[C@@H]4[C@@]5(C)CC=C(C6=CCC(C(=O)O)CC6)C(C)(C)[C@@H]5CC[C@]43C)[C@@H]12 (stereo partly drawn) [Example 23, 4-((1R,3aS,5aR,5bR,7aR,11aS,11bR,13aR,13bS)-3a-((2-(2-oxa-5-azabicyclo[2.2.1]heptan-5-yl)ethyl)amino)-1-(2-hydroxypropan-2-yl)-5a,5b,8,8,11a-pentamethyl-2,3,3a,4,5,5a,5b,6,7,7a,8,11,11a,11b,12,13,13a,13b-octadecahydro-1H-cyclopenta[a]chrysen-9-yl)cyclohex-3-enecarboxylic acid] | 0.779 nM
COCCS(=O)(=O)CCN(C)CCN[C@]12CC[C@@H](N(C)C)[C@@H]1[C@H]1CC[C@@H]3[C@@]4(C)CC=C(c5ccc(C(=O)O)cc5)C(C)(C)[C@@H]4CC[C@@]3(C)[C@]1(C)CC2 [Example B34] | 20 nM
CC1([C@@H]2CC[C@]3(NCCN4CCS(=O)(=O)CC4)CC[C@]4(C)[C@H](CC[C@@H]5[C@@]6(C)CC=C(c7ccc(C(=O)O)cc7)C(C)(C)[C@@H]6CC[C@]54C)[C@@H]23)CC1 [Example B52, 4-((1R,3aS,5aR,5bR,7aR,11aS,11bR,13aR,13bR)-3a-((2-(1,1-dioxidothiomorpholino)ethyl)amino)-5a,5b,8,8,11a-pentamethyl-1-(1-methylcyclopropyl)-2,3,3a,4,5,5a,5b,6,7,7a,8,11,11a,11b,12,13,13a,13b-octadecahydro-1H-cyclopenta[a]chrysen-9-yl)benzoic acid] | 0.924 nM
CC(=NO)[C@@H]1CC[C@]2(NCCN3CCS(=O)(=O)CC3)CC[C@]3(C)[C@H](CC[C@@H]4[C@@]5(C)CC=C(c6ccc(C(=O)O)cc6)C(C)(C)[C@@H]5CC[C@]43C)[C@@H]12 (single isomer, unassigned) [Example B14] | 3.75 nM
COC(=O)N[C@@H]1CC[C@]2(NCCN3CCS(=O)(=O)CC3)CC[C@]3(C)[C@H](CC[C@@H]4[C@@]5(C)CC=C(c6ccc(C(=O)O)cc6)C(C)(C)[C@@H]5CC[C@]43C)[C@@H]12 [Example B26, 4-((1R,3aR,5aR,5bR,7aR,11aS,11bR,13aR,13bS)-3a-((2-(1,1-dioxidothiomorpholino)ethyl)amino)-1-((methoxycarbonyl)amino)-5a,5b,8,8,11a-pentamethyl-2,3,3a,4,5,5a,5b,6,7,7a,8,11,11a,11b,12,13,13a,13b-octadecahydro-1H-cyclopenta[a]chrysen-9-yl)benzoic acid] | 2.85 nM
C=C(COCCN1CCOCC1)[C@@H]1CC[C@]2(C(=O)NCCCn3ccnc3)CC[C@]3(C)[C@H](CC[C@@H]4[C@@]5(C)CC=C(c6ccc(C(=O)O)cc6)C(C)(C)[C@@H]5CC[C@]43C)[C@@H]12 [Example 16, 4-((1R,3aS,5aR,5bR,7aR,11aS,11bR,13aR,13bS)-3a-(3-(1H-imidazol-1-yl)propylcarbamoyl)-5a,5b,8,8,11a-pentamethyl-1-(3-(2-morpholinoethoxy)prop-1-en-2-yl)-2,3,3a,4,5,5a,5b,6,7,7a,8,11,11a,11b,12,13,13a,13b-octadecahydro-1H-cyclopenta[a]chrysen-9-yl)benzoic acid] | 2.48 nM
